Consider 1 molecule from patent publication EP3035931B1, “COMPOSITION FOR REDUCING NERVOUS SYSTEM INJURY AND METHOD OF MAKING AND USE THEREOF” (Morehouse School of Medicine, priority 2013, dated 2015).

A word on the IC50: it is the concentration needed to halve the response being measured.

Residue numbers refer to the chain shown, from its start. Like-named read-outs stand apart in the source and are kept apart here.

For data set [1], the target named is TRPM7 channels (Homo sapiens, UniProt Q96QT4). The data set is described as follows: Conductance of TRPM7 channels. Format: cell-based.
Data set [2] relates to cortical neurons. Format: cell-based, mouse. As to the method: Background absorbance at 620 was subtracted.
Acid-induced injury was studied on neurons grown on 24-well plates incubated in either pH 7.4 or 6.0 ECF containing MK801, CNQX, and nimodipine; see FIG. 8. Cell injury was assayed by the measurement of lactate dehydrogenase (LDH) release (Koh and Choi, J. Neurosci., 1987, 20:83-90) at various time points (FIGS. 8A and 8B) and by fluorescent staining of alive/dead cells. Compared to neurons treated at pH 7.4, 1 hr acid incubation (pH 6.0) induced a time-dependent increase in LDH release (FIG. 8A). After 24 hr, 45.7% ± 5.4% of maximal LDH release was induced (n=25 wells). Continuous treatment at pH 6.0 induced greater cell injury (FIG. 8B, n=20).

Data set [3] deals with COS-7 cells stably transfected with ASIC1a. The data set is described as follows: Acid-induced LDH release in ASIC1a-transfected COS-7 cells. The following applies: 100 µM; 1 hr pH 6.0, LDH 24 hr after acid incubation. On the technique in general: Release of lactate dehydrogenase indicates damage to the cell membrane.
The nature of data set [4]: Efficacious plasma and brain concentration in mice. Format: in vivo. From the text: It is thus estimated that only a 10-fold increase in potency is necessary to achieve efficacious concentrations that are suitable for an acute therapeutic for stroke in humans. […]
The nature of data set [5]: Mouse 60 min MCAO, intracerebroventricular injection one hour after MCAO, infarct volume. The conditions noted are these: mice, evaluated one day after ischemia induction, FIG. 18.
Data set [6] deals with cortical neurons. The data set is described as follows: Fura-2 Ca^2+ imaging of acid-induced increase of [Ca^2+]i in cortical neurons. Format: cell-based, mouse. The conditions noted are these: pH drop to 6.0; blockers of glutamate receptors and voltage-gated Ca^2+ channels present; n=6-8.
Data set [7] addresses T1, ASIC2a (Homo sapiens, UniProt Q16515).
T1 construct: expressed in transfected cells; host or cells: CHO
T1 sequence (Q16515 1-512): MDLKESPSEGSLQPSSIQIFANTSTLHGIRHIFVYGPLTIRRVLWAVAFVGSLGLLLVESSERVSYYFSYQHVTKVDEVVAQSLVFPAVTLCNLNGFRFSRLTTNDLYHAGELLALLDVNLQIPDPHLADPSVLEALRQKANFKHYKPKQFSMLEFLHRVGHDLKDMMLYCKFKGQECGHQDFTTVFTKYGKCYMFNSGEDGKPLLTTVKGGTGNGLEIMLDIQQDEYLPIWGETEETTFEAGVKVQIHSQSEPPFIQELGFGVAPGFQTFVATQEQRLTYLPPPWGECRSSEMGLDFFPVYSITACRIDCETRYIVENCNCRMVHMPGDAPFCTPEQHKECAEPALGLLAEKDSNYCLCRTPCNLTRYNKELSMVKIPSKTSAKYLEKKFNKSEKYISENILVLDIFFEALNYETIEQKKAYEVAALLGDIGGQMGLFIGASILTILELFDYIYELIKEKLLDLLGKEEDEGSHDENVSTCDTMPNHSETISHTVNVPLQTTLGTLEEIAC
Nature of the data set: Blockade of ASIC 2a current expressed in CHO cells. Format: cell-based. The conditions noted are these: CHO cells, FIG. 17.

Data set [8] has as its target T2, ASICs (Mus musculus, UniProt Q6NXK8).
T2 sequence (Q6NXK8 1-526): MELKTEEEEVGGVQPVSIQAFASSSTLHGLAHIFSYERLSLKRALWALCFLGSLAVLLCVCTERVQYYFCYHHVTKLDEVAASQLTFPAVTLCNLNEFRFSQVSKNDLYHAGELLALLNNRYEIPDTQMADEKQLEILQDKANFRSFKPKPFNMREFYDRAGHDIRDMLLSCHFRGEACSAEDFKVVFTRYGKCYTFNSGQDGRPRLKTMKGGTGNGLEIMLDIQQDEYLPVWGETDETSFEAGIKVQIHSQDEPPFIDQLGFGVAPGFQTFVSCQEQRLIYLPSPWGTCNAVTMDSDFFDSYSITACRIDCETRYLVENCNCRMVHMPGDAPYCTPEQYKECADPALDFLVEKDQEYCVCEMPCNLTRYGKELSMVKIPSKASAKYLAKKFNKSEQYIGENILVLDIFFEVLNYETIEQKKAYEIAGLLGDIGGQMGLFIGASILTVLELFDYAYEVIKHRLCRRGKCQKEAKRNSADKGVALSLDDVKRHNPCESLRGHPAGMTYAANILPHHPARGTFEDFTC
T2 sequence (Q925H0 1-512 partner): T1 sequence (Q16515 1-512) with S132T, D471E, V479M, T503A
Format: cell-based. The following applies: cultured mouse cortical neurons; n=8; read-out: IC50, dose-dependent blockade of ASIC currents.

Data set [9] has as its target T3, ASICs (Mus musculus, UniProt Q6NXK8).
T3 construct: endogenous in cells; host or cells: primary cortical neurons from E16 Swiss mice
T3 sequence (Q6NXK8 1-526): T2 sequence (Q6NXK8 1-526)
Format: cell-based. The following applies: 100 µM amiloride; pH 6.0; n=6.

Data set [10] concerns Na^+/Ca^2+ ion exchanger. The conditions noted are these: cited from earlier work.
The format of data set [11] is in vivo, rats. The following applies: n=11.
Data set [12] can be described thus: Mouse 60 min MCAO, intravenous injection, infarct volume. Format: in vivo. The conditions noted are these: mice, intravenous injection 1, 3 or 5 hours after MCAO, FIG. 19.

Sequence of TRPM7 channels (Q96QT4 whole entry): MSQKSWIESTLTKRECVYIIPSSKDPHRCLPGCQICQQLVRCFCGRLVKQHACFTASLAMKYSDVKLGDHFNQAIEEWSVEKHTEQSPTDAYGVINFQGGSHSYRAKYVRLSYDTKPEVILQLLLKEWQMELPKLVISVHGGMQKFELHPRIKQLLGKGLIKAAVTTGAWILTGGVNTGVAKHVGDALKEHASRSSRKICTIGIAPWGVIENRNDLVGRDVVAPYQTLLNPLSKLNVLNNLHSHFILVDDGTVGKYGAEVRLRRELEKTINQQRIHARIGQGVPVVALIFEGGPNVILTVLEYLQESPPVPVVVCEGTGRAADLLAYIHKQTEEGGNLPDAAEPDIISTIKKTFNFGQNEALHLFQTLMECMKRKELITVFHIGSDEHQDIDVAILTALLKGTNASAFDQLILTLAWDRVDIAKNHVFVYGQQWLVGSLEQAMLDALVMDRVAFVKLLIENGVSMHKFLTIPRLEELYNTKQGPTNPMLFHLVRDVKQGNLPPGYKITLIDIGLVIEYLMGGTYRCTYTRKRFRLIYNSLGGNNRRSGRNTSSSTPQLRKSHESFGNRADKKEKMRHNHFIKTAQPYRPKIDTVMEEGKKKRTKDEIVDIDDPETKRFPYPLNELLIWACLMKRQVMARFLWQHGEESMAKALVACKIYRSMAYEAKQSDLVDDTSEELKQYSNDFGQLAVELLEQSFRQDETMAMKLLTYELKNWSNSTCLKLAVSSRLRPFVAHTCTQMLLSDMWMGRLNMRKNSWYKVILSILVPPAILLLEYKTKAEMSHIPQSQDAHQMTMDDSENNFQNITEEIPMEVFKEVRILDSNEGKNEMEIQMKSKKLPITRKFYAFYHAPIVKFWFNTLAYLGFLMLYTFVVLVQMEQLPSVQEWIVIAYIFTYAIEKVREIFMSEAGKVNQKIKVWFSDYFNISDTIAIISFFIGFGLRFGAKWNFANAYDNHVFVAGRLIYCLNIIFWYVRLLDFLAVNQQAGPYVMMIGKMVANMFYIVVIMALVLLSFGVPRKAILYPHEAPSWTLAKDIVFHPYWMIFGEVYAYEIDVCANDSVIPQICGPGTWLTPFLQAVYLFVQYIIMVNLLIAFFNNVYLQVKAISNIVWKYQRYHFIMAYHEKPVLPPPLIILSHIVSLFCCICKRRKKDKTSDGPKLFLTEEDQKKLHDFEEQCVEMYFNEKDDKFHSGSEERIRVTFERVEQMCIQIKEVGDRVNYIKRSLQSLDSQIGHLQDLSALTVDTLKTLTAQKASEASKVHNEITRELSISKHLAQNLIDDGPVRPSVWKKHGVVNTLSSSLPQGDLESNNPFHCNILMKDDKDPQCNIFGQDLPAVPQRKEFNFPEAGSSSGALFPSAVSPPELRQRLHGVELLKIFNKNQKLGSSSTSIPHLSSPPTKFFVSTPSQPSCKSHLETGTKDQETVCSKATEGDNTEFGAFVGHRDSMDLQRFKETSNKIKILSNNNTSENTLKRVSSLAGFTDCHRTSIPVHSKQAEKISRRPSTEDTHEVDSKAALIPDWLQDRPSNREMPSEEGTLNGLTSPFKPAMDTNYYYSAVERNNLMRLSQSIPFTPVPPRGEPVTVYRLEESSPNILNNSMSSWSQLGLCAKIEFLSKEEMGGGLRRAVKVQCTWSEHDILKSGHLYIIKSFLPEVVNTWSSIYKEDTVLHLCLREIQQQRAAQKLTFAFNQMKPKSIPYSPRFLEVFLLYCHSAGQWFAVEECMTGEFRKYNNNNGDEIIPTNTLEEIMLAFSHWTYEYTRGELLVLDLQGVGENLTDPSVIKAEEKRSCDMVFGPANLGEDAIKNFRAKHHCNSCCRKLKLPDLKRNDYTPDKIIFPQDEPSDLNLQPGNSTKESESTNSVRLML

For the molecule `N=C(N)NC(=O)c1nc(Cl)c(N)nc1N` [amiloride], the “conductance of TRPM7 channels” value in data set [1] is “no effect”. Also, in data set [2] (100 µM amiloride 10 min before and during 1 hr pH 6.0 incubation, without blocker 45.3% ± 3.8%), the “LDH release at 24 hr” value is 31.1% ± 2.5%. The “LDH release induced by 1 hr acid incubation of ASIC^+/+ neurons” value in data set [2] (pH 6.0, n=8-12) is “reduced”. Further, the “baseline LDH release” value in data set [2] (pH 7.4 ECF for 1 hr) is given as “did not affect”. The “LDH release, prolonged incubation with amiloride alone” value in data set [2] (prolonged incubation (e.g., 5 hr), n=8) is “increased LDH release”. Besides, the “acid-induced LDH release” value in data set [3] is “inhibited”. Also, in data set [4] (icv dose of 1 µl x 500 µM), the “total brain concentration at which efficacy can be achieved” value was determined as 12.5 µM. Besides, the “plasma concentration at which efficacy can be achieved” value in data set [4] (iv dose of 50 µl x 1mM) came to 32.5 µM. The results for the infarct volume entry in [5], in [11] and in [12] were “effectively reduce infarct volume”, 229.7 ± 41.1 mm^3 and “effectively reduce infarct volume”, respectively. Moreover, in data set [6], the “peak and sustained increases in [Ca^2+]i” value is listed as “largely inhibited”. The “block of ASIC2a current” value in [7] is recorded as “dose-dependent”. Besides, the values for the IC50 in data set [8] and in data set [10] were 16.4 ± 4.1 µM and 1.1 mM, respectively. The “peak amplitude of Ca^2+-mediated current, of control” value in data set [9] is listed as 26% ± 2%.
